No end group written: not given here.
T1: hDcn3^P (Homo sapiens, UniProt Q8IWE4)
T1 sequence (Q8IWE4 86-304): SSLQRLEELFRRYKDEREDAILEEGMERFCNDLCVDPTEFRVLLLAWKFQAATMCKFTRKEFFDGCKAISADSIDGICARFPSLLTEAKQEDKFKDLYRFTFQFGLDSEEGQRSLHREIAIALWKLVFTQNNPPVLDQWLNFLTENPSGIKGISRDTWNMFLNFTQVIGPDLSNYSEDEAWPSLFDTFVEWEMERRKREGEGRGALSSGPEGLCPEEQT

T2: yE1 for yNedd8 (Ula1Uba3) (Saccharomyces cerevisiae, UniProt Q99344)
T2 construct: made in house; host or cells: E. coli
T2 sequence (Q99344 1-299): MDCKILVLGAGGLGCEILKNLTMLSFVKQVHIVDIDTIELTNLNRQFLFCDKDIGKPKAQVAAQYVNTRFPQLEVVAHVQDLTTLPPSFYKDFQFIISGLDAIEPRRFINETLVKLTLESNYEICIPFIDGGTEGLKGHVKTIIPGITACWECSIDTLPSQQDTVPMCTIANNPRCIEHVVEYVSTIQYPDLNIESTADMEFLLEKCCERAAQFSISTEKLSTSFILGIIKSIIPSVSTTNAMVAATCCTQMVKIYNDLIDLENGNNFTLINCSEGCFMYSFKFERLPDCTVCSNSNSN
T2 sequence (Q12059 1-462 partner): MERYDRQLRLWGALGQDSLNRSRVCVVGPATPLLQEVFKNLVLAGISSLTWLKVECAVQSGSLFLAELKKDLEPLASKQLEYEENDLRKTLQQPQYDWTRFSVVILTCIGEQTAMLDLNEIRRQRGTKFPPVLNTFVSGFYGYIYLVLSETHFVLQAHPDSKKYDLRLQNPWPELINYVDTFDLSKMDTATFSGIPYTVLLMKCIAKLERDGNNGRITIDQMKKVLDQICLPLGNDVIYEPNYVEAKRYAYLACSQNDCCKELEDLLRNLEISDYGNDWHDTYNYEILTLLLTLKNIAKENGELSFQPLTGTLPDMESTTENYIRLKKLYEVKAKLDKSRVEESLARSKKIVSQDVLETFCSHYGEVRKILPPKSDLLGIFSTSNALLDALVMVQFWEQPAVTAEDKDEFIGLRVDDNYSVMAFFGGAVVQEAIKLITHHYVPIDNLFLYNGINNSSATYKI

T3: yDcn1^P (Saccharomyces cerevisiae, UniProt Q12395)
T3 construct: made in house; host or cells: E. coli
T3 sequence (Q12395 70-269): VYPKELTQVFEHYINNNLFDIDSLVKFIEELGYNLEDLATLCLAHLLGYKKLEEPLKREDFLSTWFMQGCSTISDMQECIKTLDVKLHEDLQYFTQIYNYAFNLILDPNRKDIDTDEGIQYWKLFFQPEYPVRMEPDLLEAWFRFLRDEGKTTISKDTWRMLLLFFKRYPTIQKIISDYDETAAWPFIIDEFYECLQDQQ

T4: hDcn5^P (Homo sapiens, UniProt Q9BTE7)
T4 construct: human Dcn1 family members 1-5 (also called DCUND1-DCUND5)
T4 sequence (Q9BTE7 47-237): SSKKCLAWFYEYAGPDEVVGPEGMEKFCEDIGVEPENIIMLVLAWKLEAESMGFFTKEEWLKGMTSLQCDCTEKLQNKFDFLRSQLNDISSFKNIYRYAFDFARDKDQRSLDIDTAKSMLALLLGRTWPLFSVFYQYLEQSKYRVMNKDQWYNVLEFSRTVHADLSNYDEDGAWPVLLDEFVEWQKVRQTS

B1: CAND1: protein inhibitor of Cul1 neddylation, expressed in E. coli (protein, UniProt Q86VP6 2-1230, looked up)
Cullin-associated …: ASASYHISNLLEKMTSSDKDFRFMATNDLMTELQKDSIKLDDDSERKVVKMILKLLEDKNGEVQNLAVKCLGPLVSKVKEYQVETIVDTLCTNMLSDKEQLRDISSIGLKTVIGELPPASSGSALAANVCKKITGRLTSAIAKQEDVSVQLEALDIMADMLSRQGGLLVNFHPSILTCLLPQLTSPRLAVRKRTIIALGHLVMSCGNIVFVDLIEHLLSELSKNDSMSTTRTYIQCIAAISRQAGHRIGEYLEKIIPLVVKFCNVDDDELREYCIQAFESFVRRCPKEVYPHVSTIINICLKYLTYDPNYNYDDEDEDENAMDADGGDDDDQGSDDEYSDDDDMSWKVRRAAAKCLDAVVSTRHEMLPEFYKTVSPALISRFKEREENVKADVFHAYLSLLKQTRPVQSWLCDPDAMEQGETPLTMLQSQVPNIVKALHKQMKEKSVKTRQCCFNMLTELVNVLPGALTQHIPVLVPGIIFSLNDKSSSSNLKIDALSCLYVILCNHSPQVFHPHVQALVPPVVACVGDPFYKITSEALLVTQQLVKVIRPLDQPSSFDATPYIKDLFTCTIKRLKAADIDQEVKERAISCMGQIICNLGDNLGSDLPNTLQIFLERLKNEITRLTTVKALTLIAGSPLKIDLRPVLGEGVPILASFLRKNQRALKLGTLSALDILIKNYSDSLTAAMIDAVLDELPPLISESDMHVSQMAISFLTTLAKVYPSSLSKISGSILNELIGLVRSPLLQGGALSAMLDFFQALVVTGTNNLGYMDLLRMLTGPVYSQSTALTHKQSYYSIAKCVAALTRACPKEGPAVVGQFIQDVKNSRSTDSIRLLALLSLGEVGHHIDLSGQLELKSVILEAFSSPSEEVKSAASYALGSISVGNLPEYLPFVLQEITSQPKRQYLLLHSLKEIISSASVVGLKPYVENIWALLLKHCECAEEGTRNVVAECLGKLTLIDPETLLPRLKGYLISGSSYARSSVVTAVKFTISDHPQPIDPLLKNCIGDFLKTLEDPDLNVRRVALVTFNSAAHNKPSLIRDLLDTVLPHLYNETKVRKELIREVEMGPFKHTVDDGLDIRKAAFECMYTLLDSCLDRLDIFEFLNHVEDGLKDHYDIKMLTFLMLVRLSTLCPSAVLQRLDRLVEPLRATCTTKVKANSVKQEFEKQDELKRSAMRAVAALLTIPEAEKSPLMSEFQSQISSNPELAAIFESIQKDSSSTNLESMDTS

Key:
hDcn3^P = target: T1, hDcn3^P; assay: ITC binding of peptides to hDcn3^P
Protocol: (§1) Protein samples were buffer matched by desalting over a NAP-5 column (GE Healthcare) into 50 mM Hepes, 125 mM NaCl, 1 mM BME, pH 7.0 (ITC buffer). Peptides were dissolved by weight to a final concentration of 10 mM in ITC buffer and diluted further in ITC buffer as required for the experiments. Measurements were performed using a MicroCal ITC200. hDcn1^P or yDcn1^P were placed into the sample cell at a final concentration of 400 μM at 18° C. The peptide ligands (4 mM) were constantly injected (1.5 μl). The interval time between each injection was 3 minutes and the duration of each injection was 3 seconds. For titrations involving hE1 and yE1, proteins were placed into the sample cell at a final concentration of 25 μM at 22° C. Peptide ligands (250 μM) were constantly injected (2.5 μl). The interval time between each injection was three minutes and the duration of each injection was 5 seconds. For hCul1^ctd-Rbx1:hDcn1^P binding, proteins were buffer matched by desalting over a NAP-5 column in 25 mM Tris, 0.1 M NaCl, 1 mM BME, pH 7.6. hCul1^ctd-Rbx1 was placed into the sample cell at a final concentration of 55 μM at 22° C. hDcn1^P (550 μM) was constantly injected (2.5 μl). The interval time between each injection was 3 minutes and the duration of each injection was 5 seconds. Obtained spectra were evaluated using Origin (V 7.0) to determine heats of binding and Kd values.
(§2) The affinity of various peptides for hDcn1^P, hDcn2^P, hDcn3^P, hDcn4^P, and hDcn5^P was tested using isothermal titration calorimetry as described in Example 1 and is provided in Table 29.

[1] = target: T2, yE1 for yNedd8 (Ula1Uba3); assay: ITC binding of Ubc12 peptides to yE1; design: species or system S. cerevisiae; settings: for ΔH / ΔS: ITC, protein yE1; for ΔH: change in enthalpy; for ΔS: change in entropy
Protocol: as §1, with “Measurements were performed using a MicroCal ITC200. hDcn1^P or yDcn1^P were placed into the sample cell at a final concentration of 400 μM at 18° C.” left out, “[…])” for “hDcn1^P (550 μM)”, “seconds.” for “seconds. Obtained spectra were evaluated using Origin (V 7.0) to determine heats of binding and Kd values.”

hDcn1^P = target: T5, hDcn1^P (Homo sapiens, UniProt Q96GG9); assay: ITC binding of Ubc12/Ube2f peptides to hDcn1^P; settings: Example 3
T5 construct: hDcn1^P corresponds to residues 62 to the C-terminal residue 259 of hDcn1; GST (cleaved yes); made in house; host or cells: E. coli BL21(DE3)Gold
T5 sequence (Q96GG9 62-259): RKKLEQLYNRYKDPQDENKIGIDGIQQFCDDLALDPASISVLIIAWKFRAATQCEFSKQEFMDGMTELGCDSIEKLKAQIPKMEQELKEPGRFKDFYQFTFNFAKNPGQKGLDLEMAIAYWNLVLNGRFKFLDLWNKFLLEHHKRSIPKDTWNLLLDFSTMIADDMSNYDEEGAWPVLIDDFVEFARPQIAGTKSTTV
Protocol: as §1, §2

hDcn2^P = target: T6, hDcn2^P (Homo sapiens, UniProt Q6PH85); assay: ITC binding of peptides to hDcn2^P; settings: Example 3
T6 construct: human Dcn1 family members 1-5 (also called DCUND1-DCUND5)
T6 sequence (Q6PH85 62-259): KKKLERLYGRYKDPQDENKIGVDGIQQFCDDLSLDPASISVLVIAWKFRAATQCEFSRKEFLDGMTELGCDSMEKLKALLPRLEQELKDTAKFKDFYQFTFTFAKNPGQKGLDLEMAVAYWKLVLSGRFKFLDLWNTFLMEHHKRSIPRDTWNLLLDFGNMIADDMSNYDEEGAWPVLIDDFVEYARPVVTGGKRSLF
Protocol: as §1, §2

yDcn1^P = target: T3, yDcn1^P; assay: ITC binding of Ubc12 peptides to yDcn1^P; design: species or system S. cerevisiae; settings: for ΔH / ΔS: ITC, protein yDcn1^P; for ΔH: change in enthalpy; for ΔS: change in entropy
Protocol: as §1, with “Measurements were performed using a MicroCal ITC200. hDcn1^P or yDcn1^P were placed into the sample cell at a final concentration of 400 μM at 18° C.” left out, “[…])” for “hDcn1^P (550 μM)”, “seconds.” for “seconds. Obtained spectra were evaluated using Origin (V 7.0) to determine heats of binding and Kd values.”

hDcn5^P = target: T4, hDcn5^P; assay: ITC binding of peptides to hDcn5^P; settings: Table 29, peptides with amidated carboxy-terminus
Protocol: as §1, with “values. […]” for “values.”

hCul1^ctd-hRbx1 = assay: Pulse-chase assay of [32P]~hNedd8 transfer from hUbc12 to hCul1-hRbx1 with or without hDcn1^P; format: biochemical, human; settings: FIG. 3
Protocol: Dcn1^P-mediated co-E3 activity was monitored using pulse-chase assays to exclusively monitor effects of acetylation on Nedd8 transfer to Cul1 without sensing earlier steps in the reaction. For the “pulse”, 10 μM of the indicated versions of yUbc12 were charged with [^32P]-yNedd8 (also referred to as [^32P]-Rub1) as described previously (Scott et al. (2010) Mol Cell 39(5):784-796), resulting in formation of a thiolester-linked yUbc12-[^32P]-yNedd8 intermediate. 10 μM of the indicated versions of hUbc12 were charged similarly with [^32P]-hNedd8, for 15 minutes at room temperature using 0.1 μM hE1, 15 μM [^32P]-hNedd8, in 50 mM Hepes, 100 mM NaCl, 1.25 mM ATP, 2.5 mM MgCl2, pH 7.5. Formation of a yUbc12-[^32P]-yNedd8 or hUbc12-[^32P]-hNedd8 intermediate was quenched with 50 mM EDTA on ice for 5 minutes. Other than in FIG. 3, where additional details are provided, chase reactions with hUbc12 and yUbc12 variants involved dilution of the Ubc12-[^32P]-Nedd8 thioester conjugate to 40 nM in 50 mM BisTris, 100 mM NaCl, 50 mM EDTA, 0.5 mg/ml BSA, pH 6.7. Chase reactions were initiated at 0° C. by the addition of hCul1^ctd-hRbx1, yCul1^C+-yRbx1, hDcn1^P-hCul1^ctd-hRbx1, or yDcn1^P-yCul1^C+-yRbx1 at a final concentration of 125 nM. Aliquots were removed at the indicated times and quenched with 2×SDS-PAGE sample buffer. […]

Row | Molecule | Kd [1] [nM] | ΔH [1] | ΔS [1] [cal/mol/deg] | ΔH (yDcn1^P) | ΔS (yDcn1^P) [cal/mol/deg] | also measured
1 | MLTLASKLKRDDGLKGSRTAATASD-NH2 [hUbe2f^1−25] |  |  |  |  |  | Kd (hDcn3^P; Table 29, peptides with amidated carboxy-terminus): > 400000 nM
2 | Ac-MLKLRQLQKKKQKENENSSSIQPN-NH2 [yUbc12Ac1-24] | 16 | −11,260 cal/mol | −3.8 | 4,145 cal/mol | 43.6 | affinity for Dcn1 (comparison in words) (hDcn1^P): greatest affinity; affinity for Dcn2 (comparison in words) (hDcn2^P): greatest affinity
3 | H-MLKLRQLQKKKQKENENSSSIQPN-NH2 [yUbc12^1-24] | 70 | −8,571 cal/mol | 2.65 | 3,777 cal/mol | 33.4 | Kd (yDcn1^P): > 40000 nM
4 | hUbe2fAcl-25: N-terminally acetylated human Ube2f residues 1-25 (Ac-MLTLASKLKRDDGLKGSRTAATASD-NH2) |  |  |  |  |  | affinity for Dcn3 (comparison in words) (hDcn3^P; Example 3): greatest affinity; binding specificity for Dcn3 over other co-E3 proteins (hDcn3^P; Example 3): fairly specific
5 | CC[C@H](C)[C@H](NC(=O)[C@H](CCSC)NC(C)=O)C(=O)N[C@@H](CCCCN)C(=O)N[C@@H](CC(C)C)C(=O)N[C@@H](Cc1ccccc1)C(=O)N[C@@H](CO)C(=O)N[C@@H](CC(C)C)C(=O)N[C@@H](CCCCN)C(=O)N[C@@H](CCC(N)=O)C(=O)N[C@@H](CCC(N)=O)C(=O)N[C@@H](CCCCN)C(=O)N[C@@H](CCCCN)C(N)=O [hUbc12^Ac1−12] |  |  |  |  |  | Kd (hDcn5^P): > 30000 nM
6 | Ac-LKLRQLQKKKQKENENSSSIQPN-NH2 [Acetyl-yUbc12^2-24] | 1580 | −9,625 cal/mol | −7.21 | 3,761 cal/mol | 33.4 | Kd (yDcn1^P): > 37000 nM
7 | hUbc12Ac1-26: N-terminally acetylated peptide of residues 1-26 of human Ubc12 (Ac-MIKLFSLKQQKKEEESAGGTKGSSKK-NH2) |  |  |  |  |  | affinity for Dcn1 (comparison in words) (hDcn1^P): greatest affinity; affinity for Dcn2 (comparison in words) (hDcn2^P): greatest affinity
8 | B1 |  |  |  |  |  | Cul1 neddylation in the presence of Dcn1^P and Ubc12 N-terminal acetylation (hCul1^ctd-hRbx1): blocked

Reference: US9447156B2, “Methods and compositions for inhibiting neddylation of proteins” (St. Jude Children's Research Hospital, priority 2011, dated 2016)
